Biological target: T1, human PAH with the R408W mutation (Homo sapiens, UniProt P00439, R408W)
T1 construct: expressed in transfected cells
T1 sequence (P00439 1-452 R408W): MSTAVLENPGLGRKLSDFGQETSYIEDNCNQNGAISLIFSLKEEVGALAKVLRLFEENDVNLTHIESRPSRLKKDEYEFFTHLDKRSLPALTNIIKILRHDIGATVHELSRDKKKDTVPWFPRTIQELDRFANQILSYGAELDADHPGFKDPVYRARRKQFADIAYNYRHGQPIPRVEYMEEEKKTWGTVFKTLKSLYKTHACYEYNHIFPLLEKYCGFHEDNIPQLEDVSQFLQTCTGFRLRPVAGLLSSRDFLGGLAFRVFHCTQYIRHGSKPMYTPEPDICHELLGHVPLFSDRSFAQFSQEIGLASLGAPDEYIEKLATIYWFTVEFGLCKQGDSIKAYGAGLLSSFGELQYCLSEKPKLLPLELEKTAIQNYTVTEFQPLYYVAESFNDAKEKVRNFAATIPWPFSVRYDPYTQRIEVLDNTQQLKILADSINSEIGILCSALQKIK
Experiment: Cell Based Phenylalanine Flux Assay
Settings: A375 cells expressing human R408W PAH; 24 hrs with compound; 13C-Tyrosine by LC-MS; average where tested multiple times; read-out: AC50

Structure (SMILES)	AC50 [µM]
O=C(Cc1nc(C(F)(F)F)cs1)N1CCc2[nH]cnc2C1c1nc2ccc(Cl)cc2[nH]1 (centres unmarked)	> 5
O=C(Cc1nc(C(F)(F)F)cs1)N1CCc2[nH]cnc2C1c1nc2ccc(F)cc2[nH]1 (centres unmarked) [listing 1 of 2 here]	> 5
O=C(Cc1nccs1)N1CCc2[nH]cnc2C1c1nc2ccc(F)cc2[nH]1 (centres unmarked) [listing 1 of 2 here]	> 5
Cc1nnc(N2CCc3[nH]cnc3C2c2nc3ccccc3[nH]2)o1 (centres unmarked)	> 5
O=C(c1nc2ccc(F)cc2s1)N1CCc2[nH]cnc2C1c1nc2ccccc2s1 (centres unmarked) [listing 1 of 2 here]	> 5
O=C(c1ccon1)N1CCc2[nH]cnc2C1c1nc2ccccc2s1 (centres unmarked) [listing 1 of 2 here]	> 5
O=C(c1ccsn1)N1CCc2[nH]cnc2C1c1nc2ccccc2s1 (centres unmarked) [listing 1 of 2 here]	> 5
O=C(c1nc2ccccc2s1)N1CCc2[nH]cnc2C1c1nc2cc(F)ccc2s1 (centres unmarked) [listing 1 of 2 here]	> 5
O=C(c1ncco1)N1CCc2[nH]cnc2C1c1nc2ccccc2s1 (centres unmarked) [listing 1 of 2 here]	> 5
O=C(c1cnn2cccc(F)c12)N1CCc2[nH]cnc2C1c1nc2ccccc2s1 (centres unmarked) [listing 1 of 2 here]	> 5
COc1ccc2c(C(=O)N3CCc4[nH]cnc4C3c3nc4ccccc4s3)cnn2c1 (centres unmarked) [listing 1 of 2 here]	> 5
O=C(c1cc2ccccn2c1)N1CCc2[nH]cnc2C1c1nc2ccccc2s1 (centres unmarked)	> 5
N#Cc1ccn2ncc(C(=O)N3CCc4[nH]cnc4C3c3nc4ccc(Br)cc4[nH]3)c2c1 (centres unmarked) [listing 1 of 2 here]	> 5
O=C(c1nccs1)N1CCc2[nH]cnc2C1c1nc2cc(F)ccc2s1 (centres unmarked) [listing 1 of 2 here]	> 5
O=C(c1nccs1)N1CCc2nc[nH]c2C1c1nc2ccc(F)cc2s1 (centres unmarked) [listing 1 of 2 here]	> 5
O=C(c1oc(-c2ccccn2)nc1C1CC1)N1CCCc2[nH]cnc2C1c1nc2ccccc2[nH]1 (centres unmarked) [listing 1 of 2 here]	> 5
Cc1nnc(C(=O)N2CCc3[nH]cnc3C2c2nc3cc(Br)ccc3[nH]2)s1 (centres unmarked)	> 5
O=C(c1cnn2c(Br)cccc12)N1CCc2[nH]cnc2C1c1nc2ccc(Br)cc2[nH]1 (centres unmarked) [listing 1 of 2 here]	> 5
O=C(c1ncn2ccccc12)N1CCc2[nH]cnc2C1c1nc2ccc(Br)cc2[nH]1 (centres unmarked) [listing 1 of 2 here]	> 5
O=C(c1cnn2cc(Cl)ccc12)N1CCc2[nH]cnc2C1c1nc2ccc(Br)cc2[nH]1 (centres unmarked)	> 5
O=C(c1cnn2ccc(F)cc12)N1CCc2[nH]cnc2C1c1nc2ccc(Br)cc2[nH]1 (centres unmarked) [listing 1 of 2 here]	> 5
O=C(c1cnn2ccc(Cl)cc12)N1CCc2[nH]cnc2C1c1nc2ccc(Cl)cc2[nH]1 (centres unmarked) [listing 1 of 2 here]	> 5

Structure (SMILES)	AC50 [µM]
Cc1ccc2c(C(=O)N3CCc4[nH]cnc4C3c3nc4ccc(Cl)cc4[nH]3)cnn2c1 (centres unmarked) [listing 1 of 2 here]	> 5
COc1ccn2ncc(C(=O)N3CCc4[nH]cnc4C3c3nc4ccc(Cl)cc4[nH]3)c2c1 (centres unmarked) [listing 1 of 2 here]	> 5
O=C(c1cnn2ccccc12)N1CCc2[nH]cnc2C1c1nc2ccc(F)cc2[nH]1 (centres unmarked) [listing 1 of 2 here]	> 5
O=C(c1ccon1)N1CCc2[nH]cnc2C1c1nc2ccc(F)cc2[nH]1 (centres unmarked) [listing 1 of 2 here]	> 5
O=C(c1nccs1)N1CCc2[nH]cnc2C1c1nc2cccc(F)c2[nH]1 (centres unmarked) [listing 1 of 2 here]	> 5
O=C(c1cnn2c(Br)cccc12)N1CCc2[nH]cnc2C1c1nc2ccc(Cl)cc2[nH]1 (centres unmarked) [listing 1 of 2 here]	> 5
O=C(c1nc2ccccc2s1)N1CCc2[nH]cnc2C1c1nc2ccc(F)cc2[nH]1 (centres unmarked) [listing 1 of 2 here]	> 5
O=C(Cc1nccs1)N1CCc2[nH]cnc2C1c1nc2ccc(F)cc2[nH]1 (centres unmarked) [listing 2 of 2 here]	1 to 5
O=C(Cc1nc(C(F)(F)F)cs1)N1CCc2[nH]cnc2C1c1nc2ccc(F)cc2[nH]1 (centres unmarked) [listing 2 of 2 here]	1 to 5
O=C(c1nc2ccc(F)cc2s1)N1CCc2[nH]cnc2C1c1nc2ccccc2s1 (centres unmarked) [listing 2 of 2 here]	1 to 5
O=C(c1ccon1)N1CCc2[nH]cnc2C1c1nc2ccccc2s1 (centres unmarked) [listing 2 of 2 here]	1 to 5
O=C(c1ccsn1)N1CCc2[nH]cnc2C1c1nc2ccccc2s1 (centres unmarked) [listing 2 of 2 here]	1 to 5
O=C(c1nc2ccccc2s1)N1CCc2[nH]cnc2C1c1nc2ccc(F)cc2s1 (centres unmarked)	1 to 5
O=C(c1nc2ccccc2s1)N1CCc2[nH]cnc2C1c1nc2cc(F)ccc2s1 (centres unmarked) [listing 2 of 2 here]	1 to 5
O=C(c1ncco1)N1CCc2[nH]cnc2C1c1nc2ccccc2s1 (centres unmarked) [listing 2 of 2 here]	1 to 5
O=C(c1cnn2cccc(F)c12)N1CCc2[nH]cnc2C1c1nc2ccccc2s1 (centres unmarked) [listing 2 of 2 here]	1 to 5
COc1ccc2c(C(=O)N3CCc4[nH]cnc4C3c3nc4ccccc4s3)cnn2c1 (centres unmarked) [listing 2 of 2 here]	1 to 5
Clc1csc(CN2CCc3[nH]cnc3C2c2nc3ccccc3[nH]2)n1 (centres unmarked)	> 5
Cc1nnc(CN2CCc3[nH]cnc3C2c2nc3ccccc3[nH]2)s1 (centres unmarked)	> 5
Clc1ccc2nc(C3c4nc[nH]c4CCN3Cc3nccs3)[nH]c2c1 (centres unmarked)	> 5
N#Cc1ccn2ncc(C(=O)N3CCc4[nH]cnc4C3c3nc4ccc(Br)cc4[nH]3)c2c1 (centres unmarked) [listing 2 of 2 here]	1 to 5
N#Cc1ccn2ncc(C(=O)N3CCc4[nH]cnc4C3c3nc4ccc(Cl)cc4[nH]3)c2c1 (centres unmarked)	> 5

Structure (SMILES)	AC50 [µM]
c1ccc2[nH]c(C3c4nc[nH]c4CCN3Cc3cncs3)nc2c1 (centres unmarked)	> 5
O=C(c1nccs1)N1CCc2nc[nH]c2C1c1nc2ccc(F)cc2s1 (centres unmarked) [listing 2 of 2 here]	1 to 5
O=C(c1cnn2c(Br)cccc12)N1CCc2[nH]cnc2C1c1nc2ccccc2[nH]1 (centres unmarked)	1 to 5
O=C(c1nnc(-c2ccccn2)o1)N1CCc2[nH]cnc2C1c1nc2ccccc2[nH]1 (centres unmarked)	1 to 5
Cc1nnc(C(=O)N2CCc3[nH]cnc3C2c2nc3ccccc3[nH]2)o1 (centres unmarked)	1 to 5
O=C(c1oc(-c2ccccn2)nc1C1CC1)N1CCCc2[nH]cnc2C1c1nc2ccccc2[nH]1 (centres unmarked) [listing 2 of 2 here]	1 to 5
O=C(c1nnc(-c2ccccn2)o1)N1CCCc2[nH]cnc2C1c1nc2ccccc2[nH]1 (centres unmarked)	> 5
O=C(c1ncn2ccccc12)N1CCc2[nH]cnc2C1c1nc2ccc(Br)cc2[nH]1 (centres unmarked) [listing 2 of 2 here]	1 to 5
Cc1ccc2c(C(=O)N3CCc4[nH]cnc4C3c3nc4ccc(Br)cc4[nH]3)cnn2c1 (centres unmarked)	> 5
O=C(c1cnn2c(Br)cccc12)N1CCc2[nH]cnc2C1c1nc2ccc(Br)cc2[nH]1 (centres unmarked) [listing 2 of 2 here]	1 to 5
O=C(c1cnn2cccc(F)c12)N1CCc2[nH]cnc2C1c1nc2ccc(Br)cc2[nH]1 (centres unmarked)	> 5
O=C(c1cnn2ccc(F)cc12)N1CCc2[nH]cnc2C1c1nc2ccc(Br)cc2[nH]1 (centres unmarked) [listing 2 of 2 here]	1 to 5
Cc1ccc2c(C(=O)N3CCc4[nH]cnc4C3c3nc4ccc(Cl)cc4[nH]3)cnn2c1 (centres unmarked) [listing 2 of 2 here]	1 to 5
COc1ccn2ncc(C(=O)N3CCc4[nH]cnc4C3c3nc4ccc(Cl)cc4[nH]3)c2c1 (centres unmarked) [listing 2 of 2 here]	1 to 5
O=C(c1cnn2cc(Cl)ccc12)N1CCc2[nH]cnc2C1c1nc2ccc(Cl)cc2[nH]1 (centres unmarked)	> 5
O=C(c1cnn2ccc(Cl)cc12)N1CCc2[nH]cnc2C1c1nc2ccc(Cl)cc2[nH]1 (centres unmarked) [listing 2 of 2 here]	1 to 5
O=C(c1cnn2ccccc12)N1CCc2[nH]cnc2C1c1nc2ccc(F)cc2[nH]1 (centres unmarked) [listing 2 of 2 here]	1 to 5
O=C(c1ccon1)N1CCc2[nH]cnc2C1c1nc2ccc(F)cc2[nH]1 (centres unmarked) [listing 2 of 2 here]	1 to 5
O=C(c1nccs1)N1CCc2[nH]cnc2C1c1nc2cccc(F)c2[nH]1 (centres unmarked) [listing 2 of 2 here]	1 to 5
O=C(c1cnn2c(Br)cccc12)N1CCc2[nH]cnc2C1c1nc2ccc(Cl)cc2[nH]1 (centres unmarked) [listing 2 of 2 here]	1 to 5
O=C(c1nc2ccccc2s1)N1CCc2[nH]cnc2C1c1nc2ccc(F)cc2[nH]1 (centres unmarked) [listing 2 of 2 here]	1 to 5

Other lines, results leading:

AC50 [µM]	Structure (SMILES)
> 5	CC(=O)N1CCc2[nH]cnc2C1c1nc2ccccc2s1 (centres unmarked)
> 5	O=C(Cc1nncs1)N1CCc2[nH]cnc2C1c1nc2ccccc2s1 (centres unmarked) [listing 1 of 2 here]
> 5	Cc1nnc(CCC(=O)N2CCc3[nH]cnc3C2c2nc3c(F)cccc3s2)s1 (centres unmarked) [listing 1 of 2 here]
> 5	Cc1nnc(CCC(=O)N2CCc3[nH]cnc3C2c2nc3cc(F)ccc3s2)s1 (centres unmarked) [listing 1 of 2 here]
> 5	O=C(CCc1nccs1)N1CCc2[nH]cnc2C1c1nc2cc(F)ccc2s1 (centres unmarked) [listing 1 of 2 here]
> 5	O=C(Cc1nccs1)N1CCc2[nH]cnc2C1c1nc2cc(F)ccc2s1 (centres unmarked) [listing 1 of 2 here]
> 5	O=C(CCc1nccs1)N1CCc2[nH]cnc2C1c1nc2ccc(Cl)cc2s1 (centres unmarked) [listing 1 of 2 here]
> 5	Cc1nnc(CCC(=O)N2CCc3[nH]cnc3C2c2nc3cccc(F)c3s2)s1 (centres unmarked) [listing 1 of 2 here]
1 to 5	O=C(Cc1nc2ccccc2s1)N1CCc2[nH]cnc2C1c1nc2ccccc2s1 (centres unmarked)
> 5	O=C(c1nc2ccccc2s1)N1CCc2[nH]cnc2C1c1nc2c(F)cccc2s1 (centres unmarked) [listing 1 of 2 here]
> 5	O=C(C1CC1)N1CCc2[nH]cnc2C1c1nc2c(F)cccc2s1 (centres unmarked) [listing 1 of 2 here]
> 5	O=C(CC1CC1)N1CCc2[nH]cnc2C1c1nc2c(F)cccc2s1 (centres unmarked) [listing 1 of 2 here]
1 to 5	O=C(Cc1nncs1)N1CCc2[nH]cnc2C1c1nc2ccccc2s1 (centres unmarked) [listing 2 of 2 here]
1 to 5	O=C(CCc1nccs1)N1CCc2[nH]cnc2C1c1nc2c(Br)cccc2s1 (centres unmarked)
1 to 5	O=C(CCc1nccs1)N1CCc2nc[nH]c2C1c1nc2c(Cl)cccc2s1 (centres unmarked)
1 to 5	Cc1nnc(CCC(=O)N2CCc3[nH]cnc3C2c2nc3c(F)cccc3s2)s1 (centres unmarked) [listing 2 of 2 here]
1 to 5	Cc1nnc(CCC(=O)N2CCc3[nH]cnc3C2c2nc3cc(F)ccc3s2)s1 (centres unmarked) [listing 2 of 2 here]
1 to 5	O=C(CCc1nccs1)N1CCc2[nH]cnc2C1c1nc2cc(F)ccc2s1 (centres unmarked) [listing 2 of 2 here]
1 to 5	CC(C)(C)CCC(=O)N1CCc2[nH]cnc2C1c1nc2cc(F)ccc2s1 (centres unmarked)
1 to 5	O=C(Cc1nccs1)N1CCc2[nH]cnc2C1c1nc2cc(F)ccc2s1 (centres unmarked) [listing 2 of 2 here]
1 to 5	O=C(CCc1nccs1)N1CCc2[nH]cnc2C1c1nc2ccc(Cl)cc2s1 (centres unmarked) [listing 2 of 2 here]
> 5	Cc1nnc(CCC(=O)N2CCc3[nH]cnc3C2c2nc3ccc(F)cc3[nH]2)s1 (centres unmarked)
1 to 5	CC(C)(C)CCC(=O)N1CCc2[nH]cnc2C1c1nc2ccc(F)cc2s1 (centres unmarked)
1 to 5	Cc1nnc(CCC(=O)N2CCc3nc[nH]c3C2c2nc3ccc(F)cc3s2)s1 (centres unmarked)
1 to 5	Cc1nnc(CCC(=O)N2CCc3[nH]cnc3C2c2nc3cccc(F)c3s2)s1 (centres unmarked) [listing 2 of 2 here]
1 to 5	O=C(c1nc2ccccc2s1)N1CCc2[nH]cnc2C1c1nc2c(F)cccc2s1 (centres unmarked) [listing 2 of 2 here]
1 to 5	O=C(C1CC1)N1CCc2[nH]cnc2C1c1nc2c(F)cccc2s1 (centres unmarked) [listing 2 of 2 here]
1 to 5	O=C(CC1CC1)N1CCc2[nH]cnc2C1c1nc2c(F)cccc2s1 (centres unmarked) [listing 2 of 2 here]
> 5	Nc1nnc(CCC(=O)N2CCc3[nH]cnc3C2c2nc3ccccc3s2)s1 (centres unmarked)
1 to 5	O=C(c1nccs1)N1CCc2[nH]cnc2C1c1nc2cc(F)ccc2s1 (centres unmarked) [listing 2 of 2 here]

From patent US20250171438A1 (Agios Pharmaceuticals, Inc., priority 2022, published 2025)
